SMILES strings stand for the structures. Values after ≈ are worked out from the molar mass of the structure shown.

A word on the CC50: it is the concentration at which the toxic effect on the cells reaches its halfway point.

Assay [1] has as its system Klebsiella pneumoniae. The settings on record: ASSAY_TEST Inhibition of Bacterial Growth; detection method Absorption (OD600); MEDIA CAMHB; plate type 384well; NBS; CORNING #3640; time 18 hr.
Description: (§1) Antibacterial activity against Klebsiella pneumoniae MDR ATCC 70063 (CO-ADD:GN_003); MIC in CAMBH media using NBS plates, by OD(600)
A further assay relates to HEK293. In words: cells. The assay is classed as functional, Homo sapiens, ATCC CRL1573.
The test system of assay [2] is Staphylococcus aureus. The settings on record: ASSAY_TEST Inhibition of Bacterial Growth; detection method Absorption (OD600); MEDIA CAMHB; plate type 384well; NBS; CORNING #3640; time 18 hr.
Description: (§2) Antibacterial activity against Staphylococcus aureus MRSA ATCC 43300 (CO-ADD:GP_020); MIC in CAMBH media, using NBS plates, by OD(600)
The test system of assay [3] is Pseudomonas aeruginosa. In words: Antibacterial activity against Pseudomonas aeruginosa PAO397 [PAO1 d(mexAB-oprM) d(mexCD-oprJ) d(mexEF-oprN) d(mexJKL) d(mexXY) d(opmH)] (CO-ADD:GN_211); MIC in CAMBH media using NBS plates, by OD(600). The settings on record: ASSAY_TEST Inhibition of Bacterial Growth, detection method Absorption (OD600), MEDIA CAMHB, plate type 384well, CORNING #3640, time 18 hr. The assay is classed as functional.

For assay [4], the system named is Escherichia coli. As to conditions: ASSAY_TEST Inhibition of Bacterial Growth; detection method Absorption (OD600); MEDIA CAMHB; plate type 384well; NBS; CORNING #3640; time 18 hr.
Description: (§3) Antibacterial activity against Escherichia coli ATCC 25922 (CO-ADD:GN_001); MIC in CAMBH media using NBS plates, by OD(600)
Assay [5] deals with Pseudomonas aeruginosa. The settings on record: ASSAY_TEST Inhibition of Bacterial Growth; detection method Absorption (OD600); MEDIA CAMHB; plate type 384well; NBS; CORNING #3640; time 18 hr.
Description: (§4) Antibacterial activity against Pseudomonas aeruginosa ATCC 27853 (CO-ADD:GN_042); MIC in CAMBH media using NBS plates, by OD(600)
For assay [6], the system named is Candida albicans. As to conditions: ASSAY_TEST Inhibition of Fungal Growth; detection method Absorption (OD530); plate type 384well; NBS; CORNING #3640.
Description: (§5) Antifungal activity against Candida albicans ATCC 90028 (CO-ADD:FG_001); MIC in YNB media using NBS plates, by OD630
For assay [7], the system named is Acinetobacter baumannii. The settings on record: ASSAY_TEST Inhibition of Bacterial Growth; detection method Absorption (OD600); MEDIA CAMHB; plate type 384well; NBS; CORNING #3640; time 18 hr.
Description: (§6) Antibacterial activity against Acinetobacter baumannii ATCC 19606 (CO-ADD:GN_034); MIC in CAMBH media using NBS plates, by OD600
Assay [8] relates to Klebsiella pneumoniae. In words: microbe, parasite or virus in culture. As to conditions: ATCC 700603, 18 h, ASSAY_TEST Inhibition of Bacterial Growth, detection method Absorption (OD600), MEDIA CAMHB, plate type 384well, NBS, CORNING #3640.
Description: as §1
The subject of assay [9] is Staphylococcus aureus. As to the kind of experiment: microbe, parasite or virus in culture. The settings on record: ATCC 43300, 18 h, ASSAY_TEST Inhibition of Bacterial Growth, detection method Absorption (OD600), MEDIA CAMHB, plate type 384well, NBS, CORNING #3640.
Description: as §2
Assay [10] has as its system Candida albicans. As to the kind of experiment: microbe, parasite or virus in culture. The settings on record: ATCC 90028, ASSAY_TEST Inhibition of Fungal Growth, detection method Absorption (OD530), plate type 384well, NBS, CORNING #3640.
Description: as §5
Assay [11] has as its system Pseudomonas aeruginosa. As to the kind of experiment: microbe, parasite or virus in culture. As to conditions: ATCC 27853, 18 h, ASSAY_TEST Inhibition of Bacterial Growth, detection method Absorption (OD600), MEDIA CAMHB, plate type 384well, NBS, CORNING #3640.
Description: as §4
The test system of assay [12] is Acinetobacter baumannii. As to the kind of experiment: microbe, parasite or virus in culture. The settings on record: ATCC 19606, 18 h, ASSAY_TEST Inhibition of Bacterial Growth, detection method Absorption (OD600), MEDIA CAMHB, plate type 384well, NBS, CORNING #3640.
Description: as §6
Assay [13] concerns Escherichia coli. As to the kind of experiment: microbe, parasite or virus in culture. As to conditions: ATCC 25922, 18 h, ASSAY_TEST Inhibition of Bacterial Growth, detection method Absorption (OD600), MEDIA CAMHB, plate type 384well, NBS, CORNING #3640.
Description: as §3
The mark [14] stands for this setting: ASSAY_TEST Inhibition of Cell Viability, detection method Resazurin, Fluorescence (ex560/em590), MEDIA DMEM with 10% FBS, plate type 384well, TC, CORNING #3712, time 18 hr, read-out: CC50.
Setting [15] is: Homo sapiens, ATCC CRL1573, HEK293, ASSAY_TEST Inhibition of Cell Viability, detection method Resazurin, Fluorescence (ex560/em590), MEDIA DMEM with 10% FBS, plate type 384well, TC, CORNING #3712, time 18 hr, read-out: CC50.

Description for Cryptococcus neoformans: Antifungal activity against Cryptococcus neoformans H99 ATCC 208821 (CO-ADD:FG_002); MIC in YNB media using NBS plates, by Resazurin OD(600-570)

Turning to `CC(=O)NC[C@H]1CN(c2ccc(N3CCSCC3)c(F)c2)C(=O)O1` [SUTEZOLID], the MIC against Klebsiella pneumoniae [1] was >20 µM; against Staphylococcus aureus [2], 5 µM (≈ 1.77 µg/mL); in the assay on Pseudomonas aeruginosa [3] it was 20 µM (≈ 7.07 µg/mL); in the assay on Escherichia coli [4] it was >20 µM; in the assay with Pseudomonas aeruginosa [5], >20 µM; in the assay with Candida albicans [6] it was >20 µM. The MIC in the assay on Acinetobacter baumannii [7] is >20 µM; with Cryptococcus neoformans, > 20 µM. Besides, in the assay on HEK293 (setting [14]), the CC50 was > 20 µM.

On to `O=c1[nH]cnc2c1ncn2[C@H]1CC[C@@H](CO)O1` [DIDANOSINE], for which the MIC in the assay with Klebsiella pneumoniae [1] was >20 µM; in the assay with Staphylococcus aureus [2], >20 µM; with Pseudomonas aeruginosa [3] it was > 20 µM; against Escherichia coli [4] it was >20 µM; with Pseudomonas aeruginosa [5], >20 µM; against Candida albicans [6] it was >20 µM. For the same molecule, the MIC against Acinetobacter baumannii [7] is >20 µM; in the assay with Cryptococcus neoformans, > 20 µM. For the same molecule, in the assay on HEK293 (setting [15]), the CC50 was > 20 µM.

As to `CCC(C)n1ncn(-c2ccc(N3CCN(c4ccc(OCC5COC(Cn6cncn6)(c6ccc(Cl)cc6Cl)O5)cc4)CC3)cc2)c1=O` (stereo unspecified) [ITRACONAZOLE], the MIC in the assay on Klebsiella pneumoniae [1] was >20 µM; against Staphylococcus aureus [2] it was >20 µM; with Pseudomonas aeruginosa [3], > 20 µM; against Escherichia coli [4], >20 µM; against Pseudomonas aeruginosa [5], >20 µM; in the assay with Candida albicans [6] it was “<=0.1562 uM”. Moreover, the MIC is >20 µM against Acinetobacter baumannii [7] and ≤ 0.156 µM in the assay with Cryptococcus neoformans. Besides, the CC50 in the assay on HEK293 (setting [15]) was > 20 µM.

Regarding `CC(=O)Oc1ccccc1C(=O)Nc1ncc([N+](=O)[O-])s1` [NITAZOXANIDE], the MIC against Klebsiella pneumoniae [1] was >20 µM; in the assay on Staphylococcus aureus [2], >20 µM; against Pseudomonas aeruginosa [3], > 20 µM; in the assay on Escherichia coli [4], >20 µM; in the assay on Pseudomonas aeruginosa [5] it was >20 µM; against Candida albicans [6], >20 µM. In addition, the MIC is >20 µM against Acinetobacter baumannii [7] and > 20 µM in the assay with Cryptococcus neoformans. Besides, the CC50 with HEK293 (setting [15]) was found to be 8.59 µM.

Take `COc1cc(Cc2cnc(N)nc2N)cc(OC)c1OC` [TRIMETHOPRIM]: the MIC is 5 µM (≈ 1.45 µg/mL) in the assay with Klebsiella pneumoniae [1]; 5 µM (≈ 1.45 µg/mL) against Staphylococcus aureus [2]; 5 µM (≈ 1.45 µg/mL) with Pseudomonas aeruginosa [3]; 2.5 µM (≈ 0.726 µg/mL) against Escherichia coli [4]; 20 µM (≈ 5.81 µg/mL) in the assay on Pseudomonas aeruginosa [5]; >20 µM against Candida albicans [6]. Further, the MIC against Acinetobacter baumannii [7] is >20 µM; in the assay on Cryptococcus neoformans it was > 20 µM. The CC50 in the assay with HEK293 (setting [14]) was > 20 µM.

In the case of `C[C@H]1COc2c(N3CCN(C)CC3)c(F)cc3c(=O)c(C(=O)O)cn1c23.C[C@H]1COc2c(N3CCN(C)CC3)c(F)cc3c(=O)c(C(=O)O)cn1c23.O` [LEVOFLOXACIN], the MIC in the assay on Klebsiella pneumoniae [1] was 5 µM; with Staphylococcus aureus [2], 2.5 µM; against Pseudomonas aeruginosa [3], ≤ 0.156 µM; in the assay on Escherichia coli [4] it was “<=0.1562 uM”; in the assay with Pseudomonas aeruginosa [5], 2.5 µM; against Candida albicans [6], >20 µM. For the same molecule, the MIC is 10 µM in the assay on Acinetobacter baumannii [7] and > 20 µM in the assay on Cryptococcus neoformans. Moreover, the CC50 with HEK293 (setting [14]) was > 20 µM.

With `OC(Cn1cncn1)(Cn1cncn1)c1ccc(F)cc1F` [FLUCONAZOLE], the MIC against Klebsiella pneumoniae [1] is >20 µM; with Staphylococcus aureus [2], >20 µM; against Pseudomonas aeruginosa [3], > 20 µM; in the assay on Escherichia coli [4], >20 µM; in the assay on Pseudomonas aeruginosa [5], >20 µM; with Candida albicans [6], 2.5 µM (≈ 0.766 µg/mL). For the same molecule, the MIC in the assay with Acinetobacter baumannii [7] is >20 µM; against Cryptococcus neoformans it was > 20 µM. For the same molecule, the CC50 in the assay on HEK293 (setting [15]) is > 20 µM.

`CO[C@@]1(NC(=O)Cc2cccs2)C(=O)N2C(C(=O)O)=C(COC(N)=O)CS[C@@H]21` [CEFOXITIN]: the MIC with Klebsiella pneumoniae [1] was >20 µM; against Staphylococcus aureus [2], >20 µM; against Pseudomonas aeruginosa [3], > 20 µM; in the assay with Escherichia coli [4] it was 5 µM (≈ 2.14 µg/mL); against Pseudomonas aeruginosa [5] it was >20 µM; against Candida albicans [6], >20 µM. Also, the MIC in the assay on Acinetobacter baumannii [7] is >20 µM; in the assay on Cryptococcus neoformans, > 20 µM. The CC50 with HEK293 (setting [15]) is > 20 µM.

`CC(=O)N1CCN(c2ccc(OCC3COC(Cn4ccnc4)(c4ccc(Cl)cc4Cl)O3)cc2)CC1` (stereo unspecified) [KETOCONAZOLE]: the MIC in the assay with Klebsiella pneumoniae [1] was >20 µM; against Staphylococcus aureus [2] it was >20 µM; in the assay on Pseudomonas aeruginosa [3], 20 µM (≈ 10.6 µg/mL); against Escherichia coli [4], >20 µM; against Pseudomonas aeruginosa [5], >20 µM; with Candida albicans [6], 0.3125 µM (≈ 0.166 µg/mL). In addition, the MIC with Acinetobacter baumannii [7] is >20 µM; in the assay on Cryptococcus neoformans, 5 µM (≈ 2.66 µg/mL). Also, the 50% cytotoxic concentration (CC50) in the assay on HEK293 (Homo sapiens, ATCC CRL1573, HEK293, 18 h) is > 20 µM.

On to `Nc1nc(=O)[nH]cc1F` [FLUCYTOSINE], for which the MIC in the assay on Klebsiella pneumoniae [1] is >20 µM; against Staphylococcus aureus [2] it was >20 µM; against Pseudomonas aeruginosa [3], > 20 µM; in the assay with Escherichia coli [4] it was >20 µM; in the assay with Pseudomonas aeruginosa [5] it was >20 µM; in the assay with Candida albicans [6], 1.25 µM (≈ 0.161 µg/mL). The MIC with Acinetobacter baumannii [7] was >20 µM; against Cryptococcus neoformans it was 1.25 µM (≈ 0.161 µg/mL). Also, in the assay on HEK293 (setting [15]), the CC50 is > 20 µM.

As to `CC(C)/N=c1\cc2n(-c3ccc(Cl)cc3)c3ccccc3nc-2cc1Nc1ccc(Cl)cc1` [CLOFAZIMINE], the MIC in the assay on Klebsiella pneumoniae [1] was >20 µM; with Staphylococcus aureus [2], 20 µM (≈ 9.47 µg/mL); against Pseudomonas aeruginosa [3] it was > 20 µM; in the assay on Escherichia coli [4], >20 µM; in the assay with Pseudomonas aeruginosa [5], >20 µM; with Candida albicans [6], >20 µM. For the same molecule, the MIC was >20 µM against Acinetobacter baumannii [7] and > 20 µM in the assay on Cryptococcus neoformans. Further, the CC50 with HEK293 (setting [15]) is > 20 µM.

As to `O=C(CSc1nnc(Br)n1-c1ccc(C2CC2)c2ccccc12)Nc1ccc(C(=O)O)cc1Cl`, the MIC against Klebsiella pneumoniae [8], against Staphylococcus aureus [9], in the assay with Candida albicans [10], in the assay on Pseudomonas aeruginosa [3], against Pseudomonas aeruginosa [11] and in the assay with Acinetobacter baumannii [12] was > 20 µM in each case. The MIC in the assay with Escherichia coli [13] and in the assay on Cryptococcus neoformans was > 20 µM each time. The CC50 in the assay with HEK293 (setting [15]) was > 20 µM.

`N#C/C(=C1/SC[C@H](c2ccc(Cl)cc2Cl)S1)n1ccnc1`: the MIC in the assay on Klebsiella pneumoniae [8] is > 20 µM; in the assay on Staphylococcus aureus [9], > 20 µM; in the assay with Candida albicans [10], 0.312 µM (≈ 0.111 µg/mL); in the assay with Pseudomonas aeruginosa [3] it was > 20 µM; in the assay on Pseudomonas aeruginosa [11], > 20 µM; in the assay with Acinetobacter baumannii [12] it was > 20 µM. In addition, the figures for the MIC with Escherichia coli [13] and in the assay on Cryptococcus neoformans were > 20 µM and 0.625 µM (≈ 0.221 µg/mL), respectively. Moreover, in the assay with HEK293 (setting [15]), the CC50 is > 20 µM.

In the case of `Cc1cc(NS(=O)(=O)c2ccc(-c3ccc(F)cc3F)cc2)no1`, the MIC with Klebsiella pneumoniae [8], in the assay on Staphylococcus aureus [9], against Candida albicans [10], against Pseudomonas aeruginosa [3], against Pseudomonas aeruginosa [11] and in the assay on Acinetobacter baumannii [12] was > 20 µM in each case. Further, the MIC against Escherichia coli [13] and in the assay on Cryptococcus neoformans was > 20 µM in each case. Besides, the CC50 with HEK293 (setting [15]) is > 20 µM.
